The text below walks through data of patent publication US4710498A, “Pyridyloxy derivatives” (Ikeda Mohando Co., Ltd., priority 1984, dated 1987).

Read-outs that look alike come from different tables or passages of the source.

In assay [1] the test system is Gastric Acid Secretion Induced by Histamine. Description: Inhibition effect on gastric acid secretion induced by histamine in pylorus ligated rat (subcutaneous). The format is in vivo, male Wistar rat. As to the method:
(§1) A male Wistar rat having a body weight of about 160 g and which had not fed for 24 hours was anesthetized by an intraperitoneal dose of 1.2 g/kg of urethane. After ligating of pylorus and esophagus, the gaster anterior was incised and fitting with a double polyethylene cannula. The wall of the stomach was rinsed with 5 ml of saline at 30 minutes intervals, and the quantity of gastric acid contained in each rinsing solution was measured by titration.
The basal acid secretion was initially measured three times, and then 0.2 mg/kg of each of the compounds of this invention was administered subcutaneously and 3 mg/kg of histamine was administered subcutaneously after the lapse of an additional 30 minutes.
(§2) The quantity of gastric acid secreted after the operation was measured continuously for 3 hours. Within that measurement interval, three time points at which the increase in acid secretion reached a maximum level were selected, and the average quantity of gastric acid secreted at those time points was taken as the increase in acid secretion, which was compared with the increase in acid secretion of the control group to calculate the percent inhibition for secretion of gastric acid (Table 1). [formula] (The result was shown as the average value of five runs.)

Assay [2] has the same test system. Description: Inhibitory effect of intraduodenally administered compounds on gastric acid secretion induced by histamine in rat. It is filed as in vivo, male Wistar rat. To be noted: for ED50: Rattus norvegicus; for Efficacy Ratio relative to Cimetidine (Cimetidine = 1): rat, in vivo. As to the method:
The test was conducted by an improved method based on that reported by Watanabe et al., in "Pharmacometrics", Vol. 3, No. (1), pages 7 to 14 (1969).
as §1, §2

The target of the next assay is T1, Histamine H2 -Receptor (Cavia porcellus, UniProt P47747).
T1 construct: from tissue; host or cells: isolated right atrium of male Hartley guinea pig
Description: biochemical. To be noted: for Kb: negative logarithm of molar concentration, isolated guinea pig atrium, read-out: Antagonistic Action against Histamine H2 -Receptor (pA2) Determined by Using Atrium isolated from Guinea Pig (converted). More on the design: species or system male Hartley guinea pig. As to the method:
A male Hartley guinea pig having a body weight of about 400 g was killed by cervical dislocation, and the atrium thereof was isolated and was suspended in an organ bath containing […] of a modified Ringer solution and subjected to a tension of 1 g. The number of heart beats under such condition was recorded using a polygraph.
Initially, from 1×10^-7 mol to 3×10^-4 mol of histamine was allowed to act accumulatively to depict the curve of the dosage-reaction relationship. Likewise, the curve of the dosage of histamine-reaction relationship was depicted in the presence of 5×10^-7 mol to 1×10^-6 mol of the test sample which was injected 3 minutes before. The negative logarithm (pA2) of the molar concentration of the test sample required for moving the curve obtained by single administration of histamine parallel to the right side by a two-times concentration was calculated.

Setting [3] is: Rattus norvegicus, 0.2 mg/kg SC, histamine 3 mg/kg SC, average of five runs, read-out: Secretion of Gastric Acid in Rat, Inhibition Rate (%).
[4] abbreviates: intraduodenal, 30 minutes before histamine SC, first series (Table 2-1), read-out: Median effective dose (ED50) inhibiting Gastric Acid Section (95% Reliability Limit).

T1 sequence (P47747 whole entry): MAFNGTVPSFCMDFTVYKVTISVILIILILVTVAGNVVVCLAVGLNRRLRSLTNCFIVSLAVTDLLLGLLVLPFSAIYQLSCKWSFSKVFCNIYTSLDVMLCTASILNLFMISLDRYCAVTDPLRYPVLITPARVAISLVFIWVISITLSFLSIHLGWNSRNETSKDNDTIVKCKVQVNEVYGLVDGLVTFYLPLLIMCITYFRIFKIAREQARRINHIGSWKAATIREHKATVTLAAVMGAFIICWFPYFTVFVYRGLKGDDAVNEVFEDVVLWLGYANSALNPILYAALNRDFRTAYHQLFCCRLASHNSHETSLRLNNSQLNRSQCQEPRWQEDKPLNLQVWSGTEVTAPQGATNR

Consider “5-dimethylaminomethylbenzyl-2-[4-<6-(1-pipelidinomethyl)pyridyl-2-oxy>-cis-2-butenylamino]-1H-pyrimidin-4-one [Ex. 45]”, for which, in assay [1] (0.2 mg/kg SC, histamine 3 mg/kg SC, average of five runs), the “Secretion of Gastric Acid in Rat, Inhibition Rate (%)” value is 36%.
As to `CN/C(=N/CCSCc1nc[nH]c1C)NC#N` [Cimetidine, reference compound], in assay [1] (Rattus norvegicus, sc, read-out: Secretion of Gastric Acid in Rat, Inhibition Rate (%)), the inhibition in vivo at 2 mg/kg came to 72%. For the same compound, the ED50 was determined as 7 mg/kg in assay [2] (read-out: Median effective dose (ED50) inhibiting Gastric Acid Section (95% Reliability Limit), intraduodenal, 30 minutes before histamine SC, first series (Table 2-1)) and 8.2 mg/kg in assay [2] (read-out: Median effective dose (ED50) inhibiting Gastric Acid Section (95% Reliability Limit), intraduodenal, 30 minutes before histamine SC, second series (Table 2-2)).
On to `CN(C)Cc1ccnc(OC/C=C\CNc2c(N)c(=O)c2=O)c1` [Ex. 3, 1-amino-2-<4-(4-dimethylaminomethylpyridyl-2-oxy)-cis-2-butenylamino>-1-cyclobuten-3,4-dione], for which, in assay [1] (setting [3]), the inhibition in vivo at 0.2 mg/kg amounted to 52%. Also, at Histamine H2 -Receptor, the Kb is 0.468 µM.
For the compound `CNc1c(NC/C=C\COc2cc(CN(C)C)ccn2)c(=O)c1=O` [Ex. 4, 1-methylamino-2-<4-(4-dimethylaminomethylpyridyl-2-oxy)-cis-2-butenylamino>-1-cyclobuten-3,4-dione], the ED50 in assay [2] (setting [4]) was determined as 0.11 mg/kg. In addition, the “Efficacy Ratio relative to Cimetidine (Cimetidine = 1)” value (“Efficacy Ratio relative to Cimetidine” below) in assay [2] is on record as 63.6.
As for `Nc1n[s+]([O-])nc1NC/C=C\COc1cc(CN2CCCCC2)ccn1` (stereo not drawn) [Ex. 7, 3-amino-4-[4-<4-(1-piperidinomethyl)pyridyl-2-oxy>-cis-2-butenylamino]-1,2,5-thiadiazole-1-oxide], in assay [1] (setting [3]), the inhibition in vivo at 0.2 mg/kg is 90%. Also, the ED50 in assay [2] (setting [4]) turned out to be 0.44 mg/kg. The “Efficacy Ratio relative to Cimetidine” value in assay [2] was determined as 15.9. At Histamine H2 -Receptor, the Kb was 0.661 µM.
On to `CNc1n[s+]([O-])nc1NC/C=C\COc1cc(CN2CCCCC2)ccn1` (stereo not drawn) [Ex. 8, 3-methylamino-4-[4-<4-(1-piperidinomethyl)pyridyl-2-oxy>-cis-2-butenylamino]-1,2,5-thiadiazole-1-oxide], for which the inhibition in vivo at 0.2 mg/kg in assay [1] (setting [3]) stood at 85%. On Histamine H2 -Receptor, the Kb is 0.49 µM.
Regarding `CNc1n[s+]([O-])nc1NC/C=C/COc1cc(CN2CCCCC2)ccn1` (stereo not drawn) [Ex. 10, 3-methylamino-4-[4-<4-(1-piperidinomethyl)pyridyl-2-oxy>-trans-2-butenylamino]-1,2,5-thiadiazole-1-oxide], the inhibition in vivo at 0.2 mg/kg in assay [1] (setting [3]) worked out at 52%. The Kb on Histamine H2 -Receptor is 0.182 µM.
In the case of `NC1=NS(=O)(=O)N=C1NC/C=C\COc1cc(CN2CCCCC2)ccn1` [Ex. 13, 3-amino-4-[4-<4-(1-piperidinomethyl)pyridyl-2-oxy>-cis-2-butenylamino]-1,2,5-thiadiazole-1,1-dioxide], the inhibition in vivo at 0.2 mg/kg in assay [1] (setting [3]) amounted to 84%. For the same compound, in assay [2] (setting [4]), the ED50 turned out to be 0.5 mg/kg. For the same compound, the “Efficacy Ratio relative to Cimetidine” value in assay [2] was 14.0. In addition, the Kb on Histamine H2 -Receptor was 0.708 µM.
Consider `Nc1nsnc1NC/C=C\COc1cc(CN2CCCCC2)ccn1` [Ex. 15, 3-amino-4-[4-<4-(1-piperidinomethyl)pyridyl-2-oxy>-cis-2-butenylamino]-1,2,5-thiadiazole], for which the inhibition in vivo at 0.2 mg/kg in assay [1] (setting [3]) amounted to 61%. Moreover, the ED50 in assay [2] (setting [4]) turned out to be 0.38 mg/kg. Moreover, the “Efficacy Ratio relative to Cimetidine” value in assay [2] is 18.4. For the same compound, the “antagonistic actions against Histamine H2 -receptor (in words)” value on Histamine H2 -Receptor (isolated right atria of guinea pigs) is reported as “strong”. On Histamine H2 -Receptor, the Kb was 0.0355 µM.
For `CN(C)Cc1c[nH]c(NC/C=C\COc2cc(CN3CCCCC3)ccn2)nc1=O` [Ex. 21, 5-dimethylaminomethyl-2-[4-<4-(1-piperidinomethyl)pyridyl-2-oxy>-cis-2-butenylamino]-1H-pyrimidin-4-one], the inhibition in vivo at 0.2 mg/kg in assay [1] (setting [3]) came to 65%. Further, the Kb on Histamine H2 -Receptor is 0.316 µM.
In the case of `CN(C)Cc1cccc(Cc2c[nH]c(NC/C=C\COc3cc(CN4CCCCC4)ccn3)nc2=O)c1` [Ex. 23, 5-(3-dimethylaminomethylbenzyl)-2-[4-<4-(1-piperidinomethyl)pyridyl-2-oxy>-cis-2-butenylamino]-1H-pyrimidin-4-one], in assay [1] (setting [3]), the inhibition in vivo at 0.2 mg/kg stood at 36%. Moreover, the Kb on Histamine H2 -Receptor was 1.55 µM.
For `Nc1cc(NC/C=C\COc2cc(CN3CCCCC3)ccn2)[nH]c(=O)n1` [Ex. 26, 4-amino-6-[4-<4-(1-piperidinomethyl)pyridyl-2-oxy>-cis-2-butenylamino]-1H-pyrimidin-2-one] the same measures were 83% and 0.263 µM.
For the compound `CNc1c(NC/C=C\COc2cccc(CN3CCCCC3)n2)c(=O)c1=O` [Ex. 33, 1-methylamino-2-[4-<6-(1-piperidinomethyl)pyridyl-2-oxy>-cis-2-butenylamino]-1-cyclobuten-3,4-dione], the inhibition in vivo at 0.2 mg/kg in assay [1] (setting [3]) came to 34%. The Kb on Histamine H2 -Receptor is 0.661 µM.
Regarding `Nc1n[s+]([O-])nc1NC/C=C\COc1cccc(CN2CCCCC2)n1` (stereo not drawn) [Ex. 34, 3-amino-4-[4-<6-(1-piperidinomethyl)pyridyl-2-oxy>-cis-2-butenylamino]-1,2,5-thiadiazole-1-oxide], the inhibition in vivo at 0.2 mg/kg in assay [1] (setting [3]) amounted to 81%. Further, the Kb on Histamine H2 -Receptor is 0.933 µM.
For `CNc1n[s+]([O-])nc1NC/C=C\COc1cccc(CN2CCCCC2)n1` (stereo not drawn) [Ex. 35, 3-methylamino-4-[4-<6-(1-piperidinomethyl)pyridyl-2-oxy>-cis-2-butenylamino]-1,2,5-thiadiazole-1-oxide], the inhibition in vivo at 0.2 mg/kg in assay [1] (setting [3]) is 74%. In addition, the Kb at Histamine H2 -Receptor is 1.1 µM.
For `Nc1nnc(NC/C=C\COc2cccc(CN3CCCCC3)n2)s1` [Ex. 39, 2-amino-5-[4-<6-(1-piperidinomethyl)pyridyl-2-oxy>-cis-2-butenylamino]-1,3,4-thiadiazole] the same measures were 36% and 1.55 µM.
In the case of `Cn1nc(N)nc1NC/C=C\COc1cccc(CN2CCCCC2)n1` [Ex. 41, 3-amino-1-methyl-5-[4-<6-(1-piperidinomethyl)pyridyl-2-oxy>-cis-2-butenylamino]-1H-1,2,4-triazole], the inhibition in vivo at 0.2 mg/kg in assay [1] (setting [3]) is 32%. Further, on Histamine H2 -Receptor, the Kb was 1.91 µM.
For `CN(C)Cc1c[nH]c(NC/C=C\COc2cccc(CN3CCCCC3)n2)nc1=O` [Ex. 43, 5-dimethylaminomethyl-2-[4-<6-(1-piperidinomethyl)pyridyl-2-oxy>-cis-2-butenylamino]-1H-pyrimidin-4-one], the inhibition in vivo at 0.2 mg/kg in assay [1] (setting [3]) was 44%. For the same compound, the Kb at Histamine H2 -Receptor was 0.617 µM.
`Nc1cc(NC/C=C\COc2cccc(CN3CCCCC3)n2)[nH]c(=O)n1` [Ex. 47, 4-amino-6-[4-<6-(1-piperidinomethyl)pyridyl-2-oxy>-cis-2-butenylamino]-1H-pyrimidin-2-one]: the inhibition in vivo at 0.2 mg/kg in assay [1] (setting [3]) is 40%.
In the case of `Nc1n[nH]c(=O)nc1NC/C=C\COc1cccc(CN2CCCCC2)n1` [Ex. 49, 6-amino-5-[4-<6-(1-piperidinomethyl)pyridyl-2-oxy<-cis-2-butenylamino]-1,2,4-triazin-3-one], the inhibition in vivo at 0.2 mg/kg in assay [1] (setting [3]) was 45%. On Histamine H2 -Receptor, the Kb is 1.7 µM.
For the compound `Nc1n[nH]c(=O)nc1NC/C=C/COc1cc(CN2CCCCC2)ccn1` [compound 30, 6-amino-5-[4-<4-(1-piperidinomethyl)pyridyl-2-oxy>trans-2-butenylamino]-1,2,4-triazin-3-one], the ED50 in assay [2] (setting [4]) is 0.26 mg/kg. For the same compound, the “Efficacy Ratio relative to Cimetidine” value in assay [2] is on record as 26.9.
`CN(C)Cc1ccnc(OC/C=C\CNc2nc(=O)[nH]nc2N)c1` [compound 31, 6-amino-5-<4-(4-dimethylaminomethylpyridyl-2-oxy)-cis-2-butenylamino>-1,2,4-triazin-3-one]: the ED50 in assay [2] (setting [4]) was determined as 0.28 mg/kg. In addition, the “Efficacy Ratio relative to Cimetidine” value in assay [2] turned out to be 25.0.
